The values below come from patent US12612424B2, “HPK1 inhibitors and uses thereof” (Regor Pharmaceuticals, Inc., priority 2019, dated 2026).

pEC50: −log10 of the molar value.

Test [1] relates to Human Pan T Cell (IL-2 release). Put plainly: IL2 released by human pan T cell upon anti-CD3/anti-CD28 stimulation (ELISA). It is filed as cell-based. Conditions: human pan T cells; for maximal fold induction: 48 h, response of IL-2 over DMSO control, anti-CD3/anti-CD28, 48 hours, ELISA, read-out: IL-2 Max Fold Response. An excerpt: For example, Example 5 describes such a functional assay for determining the effect of an HPK1 inhibitor on IL-2 & IFN-γ release upon stimulation of Pan T cells. The secreted IL-2 & IFN-γ can be measured/quantified by standard ELISA assay. Briefly, pan T cells can be isolated from peripheral blood (PB) mononuclear cells (MNCs), or PBMC, using commercially available kits, such as MACS (Miltenyl Biotec) Pan T isolation kit (Cat. No. 130-096-535). Primary human pan-T cells include CD4 and CD8 T cells as well as some gamma/delta T cell subsets. The pan-T cells can be isolated using the negative immunomagnetic separation technique without the use of columns.
Isolated pan-T cells can be dispensed into 96-well plates at 100,000 cells/well, and stimulated with immobilized anti-CD3 antibody and soluable anti-CD28 antibody, or PMA/Ionomycin as the positive control (or culture media as the negative control). Different concentrations of test compounds can be added to the cells to assess the compound effect on cytokine secretion following TCR-stimulation/CD28 co-stimulation. Stimulated cells are incubated for 2 more days, before the supernatant (containing secreted cytokines by pan-T cells) is collected from each well for ELISA assay and quantitation of IL-2 and IFN-γ.
Biology Example 8 Compound Efficacy Study on IL2 & IFN-γ Released by Human Pan T Cell
This example is an assay method that can be used to determine compound effects on IL2 & IFN-γ release using pan T cells and ELISA assay format.
3. Procedures Procedures for Pan T isolation and Reagent preparation (Day 0): 1. Cell Growth Medium: • RPMI1640: ATCC, Cat #30-2001 • 10% FBS: Gibco, Cat #10099141 • 1% Pen-Strep: Gibco, Cat #15140122 • 1% Non-essential amino: Gibco, Cat #11140050 • Beta-Mercaptoethanol: Gibco, Cat #21985023 2. Pan T Isolation Buffer Preparation:
Prepare a solution containing phosphate-buffered saline (PBS), pH 7.2, 0.5% bovine serum albumin (BSA), and 2 mM EDTA by diluting MACS® BSA Stock Solution (#130-091-376) 20 times with autoMACS® Rinsing Solution. Keep buffer at 4° C. Degas buffer before use, as air bubbles could block the column.
3. Thawing of Frozen PBMC • 1) Pre-heat medium at 37° C. water bath. • 2) Rapidly thaw cells in 37° C. water bath. • 3) Add the pre-warmed medium into 15 mL tube. Transfer cells to the tube. • 4) 300×g centrifuge for 8 min. (centrifuge increase 0, decrease 0). • 5) Wash the PBMC using Rinsing buffer. • 6) Centrifuge PBMC at 300×g for 8 min, wash it twice (centrifuge increase 9, decrease 1). • 7) Resuspend the cells with Pan T cells isolation buffer and count cells number. 4. Pan T Cells Isolation: Cell Staining with Microbead Cocktail • 1) Prepare cells and determine cell number. Filter cells by 70 μm cell strainer. • 2) Resuspend cell pellet in 40 μL of buffer per 10^7 total cells. • 3) Add 10 μL of Pan T Cell Biotin-Antibody Cocktail per 10^7 total cells. • 4) Mix well and incubate for 10 minutes in the refrigerator (ice). • 5) Add 30 μL of buffer per 10^7 total cells. • 6) Add 20 μL of Pan T Cell MicroBead Cocktail per 10^7 total cells. • 7) Mix well and incubate for 15 minutes in the refrigerator (ice). • 8) Proceed to subsequent magnetic cell separation. • Note: a. Work fast, keep cells cold, and use pre-cooled solutions (2-8° C.). b. Volumes for magnetic labeling given are for up to 10′ total cells. When working with fewer cells, use the same volumes as indicated. c. When working with higher cell numbers, scale up all reagent volumes and total volumes accordingly. d. For optimal performance it is important to obtain a single-cell suspension before magnetic labeling. Subsequent Manual Cell Separation: • 1) Place LS Column in the magnetic field of a suitable MACS Separator. For details refer to the respective MACS Column data sheet. • 2) Prepare column by rinsing with 3 mL of buffer. • 3) Apply cell suspension onto the column. Collect flow-through, which represents the enriched T cells. • 4) Wash column with 5 mL of buffer. […]
On the technique in general: ELISA stands for enzyme-linked immunosorbent assay.

Test [2] deals with HPK1 (Homo sapiens, UniProt Q92918). Description: HPK1 biochemical assay (ADP-GLO Kinase Assay). Conditions: B*: testing performed in a first testing facility; read-out: HPK1 IC50 (nM) Relative, B*. A digest of the protocol:
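HPK1 (0.6 ng/μL final) activity was followed with MBP substrate and 10 μM ATP in Tris pH 7.5/MgCl2/BSA/DTT buffer, measured by ADP-Glo luminescence. Compounds were tested as 3-fold dilutions from 10 μM. IC50 came from a three-parameter logistic fit, with inhibition normalised to high/low controls.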
For orientation: ADP-Glo turns the ADP formed in a reaction into a luminescent signal.

The target in test [3] is T1, JAK3 (Homo sapiens, UniProt P52333).
T1 construct: purchased Thermo fisher PV3855
Description: JAK3 biochemical assay (ADP-GLO Kinase Assay). The note with it: for IC50: B*: testing performed in a first testing facility, read-out: JAK3 IC50 (nM) Relative, B*; for JAKs/HPK1 IC50 Ratio, B*: ratio of JAK3 IC50 to HPK1 IC50, first testing facility. In a few lines:
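Human JAK3 (0.78 ng) with 0.2 μg/μL Poly(E4Y1) and 4 μM ATP in 40 mM Tris pH 7.5, 20 mM MgCl2, 0.1 mg/ml BSA, 50 μM DTT, 1% DMSO; 60 min at 25 °C. ADP formed read by ADP-Glo luminescence. 10-dose 3-fold series from 10 μM; IC50 by three-parameter logistic fit.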

For orientation: IC50 means the concentration that inhibits the measured activity by half. What is called pEC50 is the negative decadic logarithm of the EC50, by convention in mol/L.

Chain of HPK1 (Q92918 whole entry): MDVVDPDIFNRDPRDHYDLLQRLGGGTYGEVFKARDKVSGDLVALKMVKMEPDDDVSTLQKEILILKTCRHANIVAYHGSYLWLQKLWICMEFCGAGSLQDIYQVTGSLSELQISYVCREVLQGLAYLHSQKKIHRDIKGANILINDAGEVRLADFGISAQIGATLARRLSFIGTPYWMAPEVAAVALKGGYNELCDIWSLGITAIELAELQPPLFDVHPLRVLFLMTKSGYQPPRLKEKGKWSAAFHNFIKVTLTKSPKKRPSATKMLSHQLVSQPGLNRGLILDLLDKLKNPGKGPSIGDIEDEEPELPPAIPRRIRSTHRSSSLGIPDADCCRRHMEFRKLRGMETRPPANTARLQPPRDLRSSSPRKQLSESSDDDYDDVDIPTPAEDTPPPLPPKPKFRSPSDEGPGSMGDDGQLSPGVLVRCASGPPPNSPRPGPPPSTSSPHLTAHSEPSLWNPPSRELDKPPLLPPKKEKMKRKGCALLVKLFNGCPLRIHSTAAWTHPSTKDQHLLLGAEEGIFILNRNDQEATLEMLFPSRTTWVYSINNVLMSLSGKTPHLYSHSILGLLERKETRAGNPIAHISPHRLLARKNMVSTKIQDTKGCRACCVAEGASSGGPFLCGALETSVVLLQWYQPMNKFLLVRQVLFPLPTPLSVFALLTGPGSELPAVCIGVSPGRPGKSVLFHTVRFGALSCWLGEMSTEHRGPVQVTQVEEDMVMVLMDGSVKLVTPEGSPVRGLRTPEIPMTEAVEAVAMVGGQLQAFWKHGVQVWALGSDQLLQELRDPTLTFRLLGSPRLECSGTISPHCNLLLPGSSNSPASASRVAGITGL
T1 sequence (P52333 781-1124 limits assumed): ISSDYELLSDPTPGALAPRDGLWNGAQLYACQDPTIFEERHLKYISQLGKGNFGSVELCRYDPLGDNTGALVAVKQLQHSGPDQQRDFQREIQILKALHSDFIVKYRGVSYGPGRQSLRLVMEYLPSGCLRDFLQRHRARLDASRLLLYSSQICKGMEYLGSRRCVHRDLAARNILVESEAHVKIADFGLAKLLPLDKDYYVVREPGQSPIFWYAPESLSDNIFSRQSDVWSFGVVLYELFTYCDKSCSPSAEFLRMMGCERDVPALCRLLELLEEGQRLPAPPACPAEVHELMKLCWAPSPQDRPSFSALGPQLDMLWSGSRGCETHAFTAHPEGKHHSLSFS

With `COc1cc2c(cc1Nc1ncc(Cl)c(-n3cc(F)c4ccccc43)n1)CN(C)CC2` [Example 11, N-(5-Chloro-4-(3-fluoro-1H-indol-1-yl)pyrimidin-2-yl)-6-methoxy-2-methyl-1,2,3,4-tetrahydroisoquinolin-7-amine], in test [1] (Homo sapiens, T-cell), the maximal fold induction is less than 2. Also, in test [2], the IC50 was no more than 100 nM.

For the compound `COc1cc2c(cc1Nc1ncc(Cl)c(N3CCc4ccccc43)n1)CN(CCO)CC2` [Example 27], in test [1] (Homo sapiens, T-cell), the maximal fold induction is greater than 2. Moreover, in test [1] (Homo sapiens, T-cell, IL-2 response, calculated with GraphPad Prism), the pEC50 is less than 6.00. In addition, the “EC2x (nM)” value in test [1] (concentration of compound that gives 200% IL-2 response (2 folds) over DMSO control) is “+ (“+”, for greater than 1 μM)”. In test [2], the IC50 is no more than 100 nM.

Turning to `COc1cc2c(cc1Nc1ncc(Cl)c(N3CCOc4ccccc43)n1)CN(C)CC2` [Example 7, N-(5-chloro-4-(2,3-dihydro-4H-benzo[b][1,4]oxazin-4-yl)pyrimidin-2-yl)-6-methoxy-2-methyl-1,2,3,4-tetrahydroisoquinolin-7-amine], in test [2], the IC50 was no more than 100 nM. Moreover, in test [3], the IC50 is greater than 1000 nM and the “JAKs/HPK1 IC50 Ratio, B*” value was greater than 118.

In the case of `COC(=O)c1cn(-c2nc(Nc3cc4c(cc3OC)CCN(C)C4)ncc2Cl)c2ccccc12` [Example 114], the IC50 in test [2] was no more than 100 nM. In test [3], the IC50 was greater than 1000 nM and the “JAKs/HPK1 IC50 Ratio, B*” value is on record as greater than 118.

Turning to `COc1cc2c(cc1Nc1ncc(Cl)c(-n3cc(CS(C)(=O)=O)c4ccccc43)n1)CN(C)CC2` [Example 82, N-(5-chloro-4-(3-((methylsulfonyl)methyl)-1H-indol-1-yl)pyrimidin-2-yl)-6-methoxy-2-methyl-1,2,3,4-tetrahydroisoquinolin-7-amine], in test [2], the IC50 was no more than 100 nM. Moreover, in test [3], the concentration for half-maximal inhibition (IC50) was greater than 1000 nM and the “JAKs/HPK1 IC50 Ratio, B*” value is 800.

On to `COc1cc2c(cc1Nc1ncc(Cl)c(N3CCn4c3cccc4=O)n1)CN(C)CC2` [Example 31], for which the half-inhibitory concentration (IC50) in test [2] lay within 100 to 500 nM. In test [3], the IC50 was greater than 1000 nM and the “JAKs/HPK1 IC50 Ratio, B*” value is recorded as 31.

Turning to `COc1cc2c(cc1Nc1ncc(Cl)c(N3CC(CO)(C(=O)O)c4ccccc43)n1)CN(C)CC2` (centres unmarked) [Example 124], the IC50 in test [2] and in test [3] was no more than 100 nM in each case. For the same compound, the “JAKs/HPK1 IC50 Ratio, B*” value in test [3] amounted to 20.

Take `COc1cc2c(cc1Nc1ncc3c(n1)n(-c1ccccc1)c(=O)n3C)CN(C)CC2` [Example 166, 2-((6-Methoxy-2-methyl-1,2,3,4-tetrahydroisoquinolin-7-yl)amino)-7-methyl-9-phenyl-7,9-dihydro-8H-purin-8-one]: the values for the IC50 in test [2] and in test [3] were 100 to 500 nM and greater than 1000 nM, respectively.

Turning to `COc1cc2c(cc1Nc1ncc(Cl)c(N3CC(C(=O)O)C4(CCOCC4)C3)n1)CN(C)CC2` (centres unmarked) [Example 168], the 50% inhibitory concentration (IC50) in test [2] was no more than 100 nM; in test [3] it was greater than 1000 nM. For the same compound, the “JAKs/HPK1 IC50 Ratio, B*” value in test [3] was found to be 737.

For `CCc1c[nH]c2ncc(-c3ccc(-c4ncco4)c(P(C)(C)=O)c3)cc12` [Example 63, (5-(3-Ethyl-1H-pyrrolo[2,3-b]pyridin-5-yl)-2-(oxazol-2-yl)phenyl)dimethylphosphine oxide], the figures for the IC50 in test [2] and in test [3] were 100 to 500 nM and greater than 1000 nM, respectively. In test [3], the “JAKs/HPK1 IC50 Ratio, B*” value is on record as 19.

For `CCc1c[nH]c2ncc(-c3ccc(C(F)F)c(P(C)(C)=O)c3)cc12` [Example 61, (2-(Difluoromethyl)-5-(3-ethyl-1H-pyrrolo[2,3-b]pyridin-5-yl)phenyl)dimethylphosphine oxide], the IC50 in test [2] lay within 100 to 500 nM. Moreover, in test [3], the IC50 is greater than 1000 nM and the “JAKs/HPK1 IC50 Ratio, B*” value is 15.
